Results taken from ChEMBL document CHEMBL5046270, “A Selective and Orally Bioavailable Quinoline-6-Carbonitrile-Based Inhibitor of CDK8/19 Mediator Kinase with Tumor-Enriched Pharmacokinetics” (J Med Chem, 2022).

Legend:
[1] = Tmax in plasma of BALB/c mouse xenografted with mouse CT26 cells at 100 mg/kg, po by LC-MS/MS analysis; format: ADME, organism-based
[2] = Cmax in tumor of BALB/c mouse xenografted with mouse CT26 cells at 100 mg/kg, po by LC-MS/MS analysis; format: ADME, organism-based, Neoplasm; parameters: route oral, dose 100 mg/kg
[3] = Metabolic stability in human hepatocyte assessed as intrinsic clearance at 2 uM measured per 10^6 by LC-MS/MS analysis; format: ADME, cell-based; details: hepatocytes
[4] = Elimination rate constant in plasma of BALB/c mouse xenografted with mouse CT26 cells at 2.5 mg/kg, iv by LC-MS/MS analysis; format: ADME, organism-based
[5] = Inhibition of NF kappa B dependent CDK8/CDK19 in HEK293 cell incubated for 3 hrs in presence of TNF-alpha by Spectra max microtitre plate reader; format: cell-based; details: Homo sapiens, HEK293, 3 h
[6] = AUC (0-24hrs) in tumor of BALB/c mouse xenografted with mouse CT26 cells at 2.5 mg/kg, iv by LC-MS/MS analysis; format: ADME, organism-based, Neoplasm; parameters: time < 24 hr, route intravenous, dose 2.5 mg/kg
[7] = Tmax in tumor of BALB/c mouse xenografted with mouse CT26 cells at 2.5 mg/kg, iv by LC-MS/MS analysis; format: ADME, organism-based, Neoplasm
[8] = Drug accumulation in lung of BALB/c mouse bearing CT26 tumor model at 100 mg/kg, po for 7 days by LC-MS/MS analysis; format: ADME, organism-based; details: in vivo, 168 h, time 7 day
CT26 = test: Downregulation of CCL12 gene expression in BALB/c mouse xenografted with mouse CT26 cells at 100 mg/kg, po 2 to 12 hrs […]; format: functional, organism-based; details: time 2-12 hrs, TDE = time-dependent effect
[9] = biological target: Cyclin-C/Cyclin-dependent kinase 19 (Homo sapiens) (UniProt Q9BWU1+P24863); test: Binding affinity to recombinant human CDK19/cyclinC assessed as mean residence time by TR FRET based assay; format: protein-complex assay
[10] = AUC (0-24hrs) in tumor of BALB/c mouse xenografted with mouse CT26 cells at 100 mg/kg, po by LC-MS/MS analysis; format: ADME, organism-based, Neoplasm; parameters: time < 24 hr, route oral, dose 100 mg/kg

- Tmax [1]: 720 min
- Cmax [2]: 5730 ng/mL
- CLH [3]: 0.00639 mL/min
- k el [4]: 0.000258 s⁻¹
- IC50 [5]: 56 nM
- AUC(0-t) at 24 h [6]: 6410 ng·h/mL
- Tmax [7]: 34.8 min
- Drug uptake [8]: Active
- MRT [9]: 4.25 min
- AUC(0-t) at 24 h [10]: 88600 ng·h/mL
SMILES: CN1CCN(C(=O)c2ccc3cc(CCNc4ccnc5ccc(C#N)cc45)ccc3c2)CC1
- Activity (CT26): Tde
